Experimental data reported in ChEMBL document CHEMBL3352252, “Design, synthesis and molecular modeling of biquinoline-pyridine hybrids as a new class of potential EGFR and HER-2 kinase inhibitors” (Bioorg Med Chem Lett, 2014).

How the values were obtained:
[1] = target: Receptor tyrosine-protein kinase erbB-2 (Homo sapiens, UniProt P04626); assay: Inhibition of histidine-tagged recombinant HER2 (unknown origin) expressed in Sf9 cells assessed as reduction in enzyme autophosphorylation by DELFIA/time-resolved fluorometry
HepG2 = assay: Antiproliferative activity against human HepG2 cells after 48 hrs by MTT assay; type: functional, cell-based; conditions: HepG2, 48 h
[2] = target: Epidermal growth factor receptor (Homo sapiens, UniProt P00533); assay: Inhibition of histidine-tagged recombinant EGFR cytoplasmic domain (amino acids 645-1186) (unknown origin) expressed in Sf9 cells assessed as reduction in enzyme autophosphorylation by DELFIA/time-resolved fluorometry
A549 = assay: Antiproliferative activity against human A549 cells after 48 hrs by MTT assay; type: functional, cell-based; conditions: A549, 48 h

Receptor tyrosine-protein kinase erbB-2, sequence (P04626 whole entry): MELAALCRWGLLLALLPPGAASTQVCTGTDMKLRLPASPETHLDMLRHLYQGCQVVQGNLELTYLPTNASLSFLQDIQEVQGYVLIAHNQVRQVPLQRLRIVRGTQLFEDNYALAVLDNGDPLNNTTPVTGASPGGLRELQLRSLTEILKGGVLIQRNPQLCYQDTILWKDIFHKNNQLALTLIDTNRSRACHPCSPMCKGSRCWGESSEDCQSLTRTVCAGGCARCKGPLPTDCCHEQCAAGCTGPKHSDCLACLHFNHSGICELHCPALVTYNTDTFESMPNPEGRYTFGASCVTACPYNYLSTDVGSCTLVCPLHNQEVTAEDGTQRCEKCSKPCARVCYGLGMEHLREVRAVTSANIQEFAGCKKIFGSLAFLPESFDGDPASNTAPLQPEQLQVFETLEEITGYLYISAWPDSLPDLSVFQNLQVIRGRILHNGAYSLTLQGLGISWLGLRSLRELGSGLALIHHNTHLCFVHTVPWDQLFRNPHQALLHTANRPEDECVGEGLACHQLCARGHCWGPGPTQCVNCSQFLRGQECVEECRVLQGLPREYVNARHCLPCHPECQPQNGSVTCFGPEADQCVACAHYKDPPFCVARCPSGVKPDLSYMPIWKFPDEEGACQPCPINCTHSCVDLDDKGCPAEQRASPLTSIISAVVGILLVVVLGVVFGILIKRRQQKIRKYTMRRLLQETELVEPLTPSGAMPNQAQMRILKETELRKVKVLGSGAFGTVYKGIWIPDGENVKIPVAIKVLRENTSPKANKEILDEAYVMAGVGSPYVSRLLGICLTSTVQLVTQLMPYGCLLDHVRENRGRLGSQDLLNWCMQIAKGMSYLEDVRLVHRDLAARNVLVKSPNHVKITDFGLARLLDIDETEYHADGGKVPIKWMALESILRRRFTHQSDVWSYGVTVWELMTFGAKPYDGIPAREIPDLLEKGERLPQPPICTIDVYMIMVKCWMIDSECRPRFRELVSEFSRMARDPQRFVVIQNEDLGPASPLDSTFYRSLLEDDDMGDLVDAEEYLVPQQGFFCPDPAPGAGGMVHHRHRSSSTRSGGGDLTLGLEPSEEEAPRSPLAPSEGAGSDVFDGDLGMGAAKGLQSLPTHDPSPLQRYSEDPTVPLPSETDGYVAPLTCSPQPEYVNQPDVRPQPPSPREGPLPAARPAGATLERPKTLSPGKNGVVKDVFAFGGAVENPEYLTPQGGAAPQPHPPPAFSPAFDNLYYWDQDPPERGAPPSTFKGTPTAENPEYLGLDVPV
Epidermal growth factor receptor, sequence (P00533 whole entry, the tested form may be a part): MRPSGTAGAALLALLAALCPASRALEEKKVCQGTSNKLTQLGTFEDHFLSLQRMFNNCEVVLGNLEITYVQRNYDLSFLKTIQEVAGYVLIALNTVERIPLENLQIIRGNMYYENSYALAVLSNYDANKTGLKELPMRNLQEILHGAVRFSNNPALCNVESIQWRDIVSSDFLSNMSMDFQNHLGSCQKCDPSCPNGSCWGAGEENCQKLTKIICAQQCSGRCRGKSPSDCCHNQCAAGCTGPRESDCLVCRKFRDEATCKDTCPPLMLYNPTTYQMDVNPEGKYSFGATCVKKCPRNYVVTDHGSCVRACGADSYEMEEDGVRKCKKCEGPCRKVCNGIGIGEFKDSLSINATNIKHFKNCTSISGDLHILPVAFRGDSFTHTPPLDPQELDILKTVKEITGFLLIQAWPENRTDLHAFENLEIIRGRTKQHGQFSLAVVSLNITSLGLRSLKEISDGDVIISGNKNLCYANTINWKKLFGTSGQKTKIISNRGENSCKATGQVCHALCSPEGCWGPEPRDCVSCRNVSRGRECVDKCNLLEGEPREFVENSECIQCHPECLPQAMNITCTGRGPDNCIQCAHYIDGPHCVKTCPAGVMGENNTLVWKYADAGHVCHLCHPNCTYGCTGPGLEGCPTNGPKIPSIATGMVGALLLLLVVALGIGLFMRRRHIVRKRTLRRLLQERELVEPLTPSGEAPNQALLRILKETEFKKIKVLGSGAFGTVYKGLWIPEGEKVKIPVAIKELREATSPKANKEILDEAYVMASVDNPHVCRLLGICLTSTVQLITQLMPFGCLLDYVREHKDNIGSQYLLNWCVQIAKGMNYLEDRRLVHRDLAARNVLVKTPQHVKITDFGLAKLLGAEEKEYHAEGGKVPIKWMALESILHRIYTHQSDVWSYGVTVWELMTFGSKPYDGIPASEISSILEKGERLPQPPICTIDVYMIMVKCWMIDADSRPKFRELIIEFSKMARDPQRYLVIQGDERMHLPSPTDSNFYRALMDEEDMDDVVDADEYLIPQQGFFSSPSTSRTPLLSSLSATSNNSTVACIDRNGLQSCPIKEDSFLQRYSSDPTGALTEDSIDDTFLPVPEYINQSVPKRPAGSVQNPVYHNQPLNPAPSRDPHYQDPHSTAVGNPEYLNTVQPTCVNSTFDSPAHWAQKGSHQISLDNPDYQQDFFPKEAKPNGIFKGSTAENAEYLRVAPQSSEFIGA

Q: How did the IC50 [1] turn out when `Cc1ccc2c(c1)cc(C1C(C#N)=C(N)N(c3cccnc3)C3=C1C(=O)CCC3)c1nnnn12` (stereo not drawn) was run?
A: 14.8 µM

Q: And the IC50 (HepG2)?
A: 16.1 µM

Q: And the IC50 [2]?
A: 10.4 µM

Q: And the IC50 (A549)?
A: 18.1 µM

Q: What does the source list for `COc1ccc2c(c1)cc(C1C(C#N)=C(N)N(c3cccnc3)C3=C1C(=O)CCC3)c1nnnn12` (stereo not drawn)?
A: IC50 [1]: 8.9 µM; IC50 (HepG2): 21.2 µM; IC50 [2]: 5.4 µM; IC50 (A549): 23.1 µM

Q: Which results are given for `N#CC1=C(N)N(c2cccnc2)C2=C(C(=O)CCC2)C1c1cc2cc(Cl)ccc2n2nnnc12` (stereo not drawn)?
A: IC50 (HepG2): 5.9 µM; IC50 (A549): 7.8 µM

Q: `COC(=O)C1=C(N)N(c2cccnc2)C2=C(C(=O)CCC2)C1c1cc2ccccc2n2nnnc12` (stereo not drawn) was tested. Which IC50 [1] did it give?
A: 1.9 µM

Q: And the IC50 (HepG2)?
A: 1.5 µM

Q: What about the IC50 [2] of the same compound?
A: 1.1 µM

Q: What about the IC50 (A549) of the same compound?
A: 1.1 µM

Q: With `COC(=O)C1=C(N)N(c2cccnc2)C2=C(C(=O)CCC2)C1c1cc2cc(C)ccc2n2nnnc12` (stereo not drawn) as the compound, how does the IC50 [1] read?
A: 5.2 µM

Q: What about the IC50 (HepG2) of the same compound?
A: 1.9 µM

Q: What about the IC50 [2] of the same compound?
A: 4.3 µM

Q: And the IC50 (A549)?
A: 5.4 µM

Q: How did the IC50 [1] turn out when `COC(=O)C1=C(N)N(c2cccnc2)C2=C(C(=O)CCC2)C1c1cc2cc(OC)ccc2n2nnnc12` (stereo not drawn) was run?
A: 2.1 µM

Q: And the IC50 (HepG2)?
A: 6 µM

Q: What about the IC50 [2] of the same compound?
A: 1.3 µM

Q: And the IC50 (A549)?
A: 6.4 µM

Q: For `COC(=O)C1=C(N)N(c2cccnc2)C2=C(C(=O)CCC2)C1c1cc2cc(Cl)ccc2n2nnnc12` (stereo not drawn), which IC50 [1] is on record?
A: 9 µM

Q: What about the IC50 (HepG2) of the same compound?
A: 1.3 µM

Q: What about the IC50 [2] of the same compound?
A: 8.1 µM

Q: What about the IC50 (A549) of the same compound?
A: 0.1 µM

Q: Which results are given for `CCOC(=O)C1=C(N)N(c2cccnc2)C2=C(C(=O)CCC2)C1c1cc2ccccc2n2nnnc12` (stereo not drawn)?
A: IC50 [1]: 0.2 µM; IC50 (HepG2): 0.1 µM; IC50 [2]: 0.09 µM; IC50 (A549): 0.4 µM

Q: With `CCOC(=O)C1=C(N)N(c2cccnc2)C2=C(C(=O)CCC2)C1c1cc2cc(C)ccc2n2nnnc12` (stereo not drawn) as the compound, how does the IC50 [1] read?
A: 4.1 µM

Q: And the IC50 (HepG2)?
A: 7.1 µM

Q: What about the IC50 [2] of the same compound?
A: 7 µM

Q: What about the IC50 (A549) of the same compound?
A: 8.5 µM

Q: Which results are given for `CCOC(=O)C1=C(N)N(c2cccnc2)C2=C(C(=O)CCC2)C1c1cc2cc(OC)ccc2n2nnnc12` (stereo not drawn)?
A: IC50 [1]: 0.8 µM; IC50 (HepG2): 18.3 µM; IC50 [2]: 0.2 µM; IC50 (A549): 15.4 µM

Q: `CCOC(=O)C1=C(N)N(c2cccnc2)C2=C(C(=O)CCC2)C1c1cc2cc(Cl)ccc2n2nnnc12` (stereo not drawn) was tested. Which IC50 [1] did it give?
A: 22.7 µM

Q: What about the IC50 (HepG2) of the same compound?
A: 5.5 µM

Q: What about the IC50 [2] of the same compound?
A: 16.7 µM

Q: What about the IC50 (A549) of the same compound?
A: 1.3 µM

Q: For `N#CC1=C(N)N(c2cccnc2)C2=C(C(=O)CCC2)C1c1cc2ccccc2n2nnnc12` (stereo not drawn), which IC50 [1] is on record?
A: 5.2 µM

Q: What about the IC50 (HepG2) of the same compound?
A: 11 µM

Q: What about the IC50 [2] of the same compound?
A: 4.8 µM

Q: What about the IC50 (A549) of the same compound?
A: 13 µM

Q: How did the IC50 (HepG2) turn out when `C#Cc1cccc(Nc2ncnc3cc(OCCOC)c(OCCOC)cc23)c1` [ERLOTINIB] was run?
A: 0.1 µM

Q: What about the IC50 (A549) of the same compound?
A: 0.1 µM
